Results on 24 compounds are retold here after US12037344B2, “NLRP3 modulators” (INNATE TUMOR IMMUNITY, INC., priority 2018, dated 2024).

Where two headings read alike, the source gives them in different places.

The subject of one assay is THP-1 cells. The assay is described as follows: Measurement of IL-1β production, hTRF protocol (second alternative procedure), THP-1 cells. Conditions: Homo sapiens. The assay is classed as cell-based, human. The method, boiled down:
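Compounds, dilution series starting at a final 10 μM, were incubated 2 hours at 37° C with PMA-differentiated THP-1 cells (50 ng/ml overnight; 50,000 cells/well, 2% FBS RPMI). Released IL-1β quantified in supernatant by hTRF kit with 1:40 antibody dilution, 4° C overnight, 665/615 nm ratio.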

A further assay deals with T1, TLR8 (Homo sapiens, UniProt Q9NR97).
T1 construct: human HEK-Blue cells co-expressing a TLR7 or TLR8 gene
T1 sequence (Q9NR97 27-1041): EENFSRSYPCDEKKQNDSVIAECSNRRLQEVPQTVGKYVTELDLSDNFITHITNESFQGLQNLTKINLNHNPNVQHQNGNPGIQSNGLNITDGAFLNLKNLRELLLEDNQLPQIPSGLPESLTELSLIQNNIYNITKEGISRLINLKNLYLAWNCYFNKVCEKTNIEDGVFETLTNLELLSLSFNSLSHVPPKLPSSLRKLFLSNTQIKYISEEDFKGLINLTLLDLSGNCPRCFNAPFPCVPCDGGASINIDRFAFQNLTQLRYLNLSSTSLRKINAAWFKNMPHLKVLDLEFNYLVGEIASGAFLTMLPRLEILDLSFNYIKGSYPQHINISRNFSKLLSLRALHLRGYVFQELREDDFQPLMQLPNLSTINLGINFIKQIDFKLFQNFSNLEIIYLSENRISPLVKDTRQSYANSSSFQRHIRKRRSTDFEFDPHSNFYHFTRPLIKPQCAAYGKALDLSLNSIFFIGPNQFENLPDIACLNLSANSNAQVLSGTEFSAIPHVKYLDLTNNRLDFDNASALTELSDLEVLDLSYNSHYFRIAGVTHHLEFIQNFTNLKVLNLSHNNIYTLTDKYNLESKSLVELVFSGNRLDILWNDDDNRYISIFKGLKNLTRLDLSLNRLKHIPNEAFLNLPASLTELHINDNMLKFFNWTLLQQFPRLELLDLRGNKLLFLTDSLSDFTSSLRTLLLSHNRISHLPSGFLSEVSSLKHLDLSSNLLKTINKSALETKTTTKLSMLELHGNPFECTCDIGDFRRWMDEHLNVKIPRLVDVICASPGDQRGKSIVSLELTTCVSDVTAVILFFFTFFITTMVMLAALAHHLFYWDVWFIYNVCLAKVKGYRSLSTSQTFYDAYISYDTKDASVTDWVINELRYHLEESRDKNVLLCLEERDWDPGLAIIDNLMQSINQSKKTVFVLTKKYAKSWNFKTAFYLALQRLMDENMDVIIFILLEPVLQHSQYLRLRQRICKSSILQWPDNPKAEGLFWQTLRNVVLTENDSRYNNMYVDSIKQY
Briefly: In vitro human TLR8 binding reporter assay (HEK-Blue, NF-kB/AP1-inducible SEAP). The assay is classed as cell-based. Particulars: read-out: TLR8 Agonist EC50. A digest of the protocol:
(§1)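 Cells are seeded and grown for 24 h. Compounds or DMSO are then added and incubated 18 h at 37 °C. Quanti-Blue is added, and SEAP is read after thirty minutes. EC50 values are normalized, with RLU from 50 μM reference standard setting 100% Ymax.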

Another assay has as its target T2, TLR7 (Homo sapiens, UniProt Q9NYK1).
T2 construct: human HEK-Blue cells co-expressing a TLR7 or TLR8 gene
T2 sequence (Q9NYK1 27-1049): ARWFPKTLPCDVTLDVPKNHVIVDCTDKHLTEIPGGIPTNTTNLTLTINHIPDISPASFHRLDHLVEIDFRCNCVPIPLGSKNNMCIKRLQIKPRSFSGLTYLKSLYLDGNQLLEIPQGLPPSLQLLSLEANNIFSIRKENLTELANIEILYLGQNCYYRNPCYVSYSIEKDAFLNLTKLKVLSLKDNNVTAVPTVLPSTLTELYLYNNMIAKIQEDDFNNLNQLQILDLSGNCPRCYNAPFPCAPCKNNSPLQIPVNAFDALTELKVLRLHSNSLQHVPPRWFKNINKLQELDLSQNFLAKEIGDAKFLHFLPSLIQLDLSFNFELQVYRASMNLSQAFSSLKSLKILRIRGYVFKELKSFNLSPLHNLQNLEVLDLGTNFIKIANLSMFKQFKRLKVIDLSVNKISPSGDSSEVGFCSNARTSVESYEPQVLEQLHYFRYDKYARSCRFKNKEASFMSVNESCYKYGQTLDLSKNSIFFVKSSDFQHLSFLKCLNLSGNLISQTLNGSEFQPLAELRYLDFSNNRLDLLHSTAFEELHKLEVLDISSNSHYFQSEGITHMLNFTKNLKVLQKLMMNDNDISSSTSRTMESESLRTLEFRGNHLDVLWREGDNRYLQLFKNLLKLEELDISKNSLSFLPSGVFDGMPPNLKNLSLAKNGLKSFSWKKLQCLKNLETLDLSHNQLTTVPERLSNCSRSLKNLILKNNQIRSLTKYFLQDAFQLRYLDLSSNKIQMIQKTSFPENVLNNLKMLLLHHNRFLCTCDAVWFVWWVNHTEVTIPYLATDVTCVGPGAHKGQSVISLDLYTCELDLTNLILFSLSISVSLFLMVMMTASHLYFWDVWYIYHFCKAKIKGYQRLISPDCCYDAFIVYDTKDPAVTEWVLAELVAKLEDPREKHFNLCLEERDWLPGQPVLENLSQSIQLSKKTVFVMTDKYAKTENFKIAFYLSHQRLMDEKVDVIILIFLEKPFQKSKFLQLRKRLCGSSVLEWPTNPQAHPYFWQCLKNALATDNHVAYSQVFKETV
Briefly: In vitro human TLR7 binding reporter assay (HEK-Blue, NF-kB/AP1-inducible SEAP). The assay is classed as cell-based. Conditions: read-out: TLR7 Agonist EC50. A digest of the protocol:
as §1
In general terms: A reporter such as luciferase makes a cellular process visible.

The mark [1] stands for this setting: THP-1, IL-1β production, human, read-out: NLRP3 hILIB EC50.
[2] abbreviates: THP-1, IL-1β production, human cells, read-out: NLRP3 hILIB EC50.

In general, EC50 refers to the midpoint of the concentration-response curve. Regarding `CC(Cn1cc2c(N)nc3cc(-c4ccn[nH]4)ccc3c2n1)NC(=O)C(C)(C)C#N` (stereo not drawn) [Example 270], the EC50 in the assay on THP-1 cells (setting [1]) is 5.18 µM; at TLR8 (activity range class) it was over 100 µM; on TLR7 (activity range class), over 100 µM.

In the case of `Nc1nc2cc(-n3cccn3)ccc2c2cn(Cc3ccccn3)nc12` [Example 14], the values for the 50% effective concentration (EC50) with THP-1 cells (setting [1]), at TLR8 (activity range class) and on TLR7 (activity range class) were 1.68 µM, 20 to 100 µM and 20 to 100 µM, respectively.

In the case of `CCCCn1cc2c(n1)c(N)nc1cc(-c3ccn[nH]3)ccc12` [Example 186], the EC50 with THP-1 cells (setting [1]) was 0.21 µM; on TLR8 (activity range class), over 100 µM; on TLR7 (activity range class), 1 to 20 µM.

Regarding `CCN1CCOCC1Cn1cc2c(N)nc3cc(-c4ccn[nH]4)ccc3c2n1` (stereo not drawn) [Example 263], the concentration for a half-maximal effect (EC50) was 1.66 µM with THP-1 cells (setting [1]), over 100 µM at TLR8 (activity range class) and over 100 µM on TLR7 (activity range class).

Take `Nc1nc2cc(-c3cc[nH]n3)ccc2c2nn(CCNC(=O)c3cccnc3)cc12` [Example 204]: the EC50 in the assay with THP-1 cells (setting [1]) was 2.6 µM; at TLR8 (activity range class), over 100 µM; at TLR7 (activity range class), over 100 µM.

`COc1ccc(C(=O)NCCn2cc3c(n2)c(N)nc2cc(-c4cc[nH]n4)ccc23)nn1` [Example 51]: the concentration for a half-maximal effect (EC50) is 18.8 µM with THP-1 cells (setting [1]), over 100 µM at TLR8 (activity range class) and over 100 µM at TLR7 (activity range class).

Turning to `CCN(Cc1[nH]c2c(c(N)nc3cc(-c4cc[nH]n4)ccc32)c1C)C(C)=O` [Example 470], the concentration for a half-maximal effect (EC50) in the assay with THP-1 cells (setting [2]) is 15.3 µM; at TLR8 (activity range), over 100 µM; at TLR7 (activity range), over 100 µM.

For the compound `Nc1nc2cc(-c3cc[nH]n3)ccc2c2cn(CCN3Cc4ccc(F)cc4C3=O)nc12` [Example 103, 2-{2-[4-amino-7-(1H-pyrazol-3-yl)-2H-pyrazolo[3,4-c]quinolin-2-yl]ethyl}-6-fluoro-2,3-dihydro-1H-isoindol-1-one], the figures for the EC50 in the assay on THP-1 cells (setting [1]), at TLR8 (activity range class) and on TLR7 (activity range class) were 0.65 µM, over 100 µM and over 100 µM, respectively.

For `Nc1nc2cc(-c3cc[nH]n3)ccc2c2nn(CC3CCOC3)cc12` (single isomer, unassigned) [Example 327], the EC50 in the assay on THP-1 cells (setting [1]) was 0.7 µM; at TLR8 (activity range class) it was over 100 µM; at TLR7 (activity range class), over 100 µM.

Take `Nc1nc2cc(-c3cc[nH]n3)ccc2c2nn(CC(O)CC(F)(F)F)cc12` (single isomer, unassigned) [Example 378]: the EC50 was 0.64 µM in the assay on THP-1 cells (setting [1]), over 100 µM at TLR8 (activity range class) and over 100 µM on TLR7 (activity range class).

In the case of `Nc1nc2cc(-c3cc[nH]n3)ccc2c2cn(CC(=O)N3CC(F)C3)nc12` [Example 543], the EC50 with THP-1 cells (setting [2]) was 2.03 µM; at TLR8 (activity range) it was over 100 µM; on TLR7 (activity range), over 100 µM.

As for `CCN(CCn1cc2c(n1)c(N)nc1cc(-c3cc[nH]n3)ccc12)C(C)=O` [Example 29, N-[2-[4-amino-7-(1H-pyrazol-3-yl)-2H-pyrazolo[3,4-c]quinolin-2-yl]ethyl]-N-ethylacetamide], the half-maximal effective concentration (EC50) is 6.01 µM in the assay with THP-1 cells (THP-1, read-out: NLRP3 hILIB EC50); over 100 µM at TLR8 (activity range class); over 100 µM on TLR7 (activity range class).

For `COCCCn1ncc2c(N)nc3cc(-c4cc[nH]n4)ccc3c21` [Example 228], the concentration giving a half-maximal response (EC50) in the assay on THP-1 cells (setting [1]) is 0.3 µM; on TLR8 (activity range class) it was over 100 µM; at TLR7 (activity range class) it was over 100 µM.

On to `Nc1nc2cc(-c3cc[nH]n3)ccc2c2nn(CC3(CO)CC3)cc12` [Example 353], for which the concentration for a half-maximal effect (EC50) in the assay on THP-1 cells (setting [1]) was 0.61 µM; on TLR8 (activity range class) it was over 100 µM; at TLR7 (activity range class), over 100 µM.

Regarding `Nc1nc2cc(-c3cc[nH]n3)ccc2c2[nH]c(CN3CC(F)(F)C3)cc12` [Example 477], the 50% effective concentration (EC50) with THP-1 cells (setting [2]) is 0.27 µM; on TLR8 (activity range), over 100 µM; at TLR7 (activity range) it was over 100 µM.

On to `Nc1nc2cc(-c3ccn[nH]3)ccc2c2cn(CCNC(=O)c3ccccn3)cc12` [Example 286, N-[2-[4-amino-7-(1H-pyrazol-5-yl)-2H-pyrrolo[3,4-c]quinolin-2-yl]ethyl]pyridine-2-carboxamide], for which the results for the concentration giving a half-maximal response (EC50) in the assay with THP-1 cells (setting [1]), on TLR8 (activity range class) and at TLR7 (activity range class) were 0.41 µM, over 100 µM and over 100 µM, respectively.

Turning to `Nc1nc2cc(-c3cc[nH]n3)ccc2c2nn(CCNC(=O)c3ccccn3)cc12` [Example 150, N-{2-[4-amino-7-(1H-pyrazol-3-yl)-2H-pyrazolo[4,3-c]quinolin-2-yl]ethyl}pyridine-2-carboxamide], the EC50 is 0.07 µM with THP-1 cells (setting [1]), over 100 µM at TLR8 (activity range class) and over 100 µM on TLR7 (activity range class).

On to `Nc1nc2cc(-c3cc[nH]n3)ccc2c2nn(C[C@@H]3C[C@H](O)CN3)cc12` [Example 382], for which the concentration for a half-maximal effect (EC50) is 5.39 µM with THP-1 cells (setting [1]), over 100 µM at TLR8 (activity range class) and over 100 µM on TLR7 (activity range class).

Turning to `Nc1nc2cc(-c3ccn[nH]3)ccc2c2nn(CCN3CCOCC3)cc12` [Example 260], the EC50 is 5.76 µM in the assay with THP-1 cells (setting [1]), over 100 µM at TLR8 (activity range class) and over 100 µM on TLR7 (activity range class).

`Cc1cccc(C(=O)NCCn2cc3c(n2)c(N)nc2cc(-c4cc[nH]n4)ccc23)n1` [Example 49]: the EC50 in the assay on THP-1 cells (setting [1]) is 0.61 µM; at TLR8 (activity range class), 20 to 100 µM; at TLR7 (activity range class), over 100 µM.

Turning to `CNC(=O)CCn1cc2c(N)nc3cc(-n4cccn4)ccc3c2n1` [Example 556], the results for the EC50 with THP-1 cells (setting [2]), on TLR8 (activity range) and at TLR7 (activity range) were 1.82 µM, over 100 µM and over 100 µM, respectively.

For the compound `CC(C)NCCn1cc2c(N)nc3cc(-c4ccn[nH]4)ccc3c2n1` [Example 275], the values for the half-maximal effective concentration (EC50) in the assay on THP-1 cells (setting [1]), on TLR8 (activity range class) and on TLR7 (activity range class) were 1.73 µM, over 100 µM and over 100 µM, respectively.

For `Nc1nc2cc(-n3cccn3)ccc2c2c1cnn2CCCO` [Example 252, 3-(4-amino-7-(1H-pyrazol-1-yl)-1H-pyrazolo[4,3-c]quinolin-1-yl)propan-1-ol], the EC50 is 1.13 µM with THP-1 cells (setting [1]), over 100 µM at TLR8 (activity range class) and over 100 µM at TLR7 (activity range class).

`CC(C)(F)C(=O)NCCn1nc2c(N)nc3cc(-c4ccn[nH]4)ccc3c2n1` [Example 157, N-{2-[4-amino-7-(1H-pyrazol-5-yl)-2H-[1,2,3]triazolo[4,5-c]quinolin-2-yl]ethyl}-2-fluoro-2-methylpropanamide]: the values for the EC50 with THP-1 cells (setting [1]), at TLR8 (activity range class) and on TLR7 (activity range class) were 5.17 µM, over 100 µM and over 100 µM, respectively.
